Measurements reported in patent US10722515B2, “Dual CLK/CDK1 inhibitors for cancer treatment” (SRI INTERNATIONAL, priority 2016, dated 2020).

How the values were obtained:
Aurora-A(h) = target: T1, Aurora-A(h) (Homo sapiens, UniProt O14965); assay: kinase profile, radiometric assay, Aurora-A; assay type: biochemical
T1 construct: purchased Eurofins, Dundee, Scotland
T1 sequence (O14965 1-403): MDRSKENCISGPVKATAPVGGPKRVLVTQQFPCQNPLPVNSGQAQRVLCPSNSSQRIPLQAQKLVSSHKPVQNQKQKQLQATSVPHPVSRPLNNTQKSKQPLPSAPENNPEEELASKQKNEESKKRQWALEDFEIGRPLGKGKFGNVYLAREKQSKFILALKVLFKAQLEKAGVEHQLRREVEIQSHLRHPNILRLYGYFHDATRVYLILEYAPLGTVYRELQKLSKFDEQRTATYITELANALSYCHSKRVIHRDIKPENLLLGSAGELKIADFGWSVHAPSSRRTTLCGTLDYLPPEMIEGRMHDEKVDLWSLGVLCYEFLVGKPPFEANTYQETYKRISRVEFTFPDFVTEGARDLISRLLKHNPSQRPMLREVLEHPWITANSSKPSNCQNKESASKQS
Method: (§1) Enzymatic biochemical activities were evaluated in radiometric protein kinase assays (Eurofins, Dundee, Scotland). Kinases are incubated with buffer, substrate and [γ-^33P]-ATP (specific activity approx. 500 cpm/pmol, concentration as required). The reaction is initiated by the addition of the MgATP mix. After incubation for 40 minutes at room temperature, the reaction is stopped by the addition of 3% phosphoric acid solution. 10 μL of the reaction is then spotted onto a P30 filtermat and washed three times for 5 minutes in 75 mM phosphoric acid and once in methanol prior to drying and scintillation counting.
(§2) All compounds are prepared to 50× final assay concentration in 100% DMSO. Positive control wells contain all components of the reaction with 2% DMSO. Blank wells contain all components of the reaction, with a reference inhibitor replacing the compound of interest. Each kinase is assigned a standard assay concentration of ATP within 20 μM of its apparent KM. Compounds were screened at 1 μM in duplicate or tested at 10 concentrations at half log dilution starting from 10 μM in singlicate. Dose response curves were fitted with four parameter logistic curve to obtain IC50 values. The average coefficient of variation (CV) of the conducted assay is 4.4%.

Aurora-B(h) = target: T2, Aurora-B(h) (Homo sapiens, UniProt Q96GD4); assay: kinase profile, radiometric assay, Aurora-B; assay type: biochemical
T2 construct: purchased Eurofins, Dundee, Scotland
T2 sequence (Q96GD4 whole entry): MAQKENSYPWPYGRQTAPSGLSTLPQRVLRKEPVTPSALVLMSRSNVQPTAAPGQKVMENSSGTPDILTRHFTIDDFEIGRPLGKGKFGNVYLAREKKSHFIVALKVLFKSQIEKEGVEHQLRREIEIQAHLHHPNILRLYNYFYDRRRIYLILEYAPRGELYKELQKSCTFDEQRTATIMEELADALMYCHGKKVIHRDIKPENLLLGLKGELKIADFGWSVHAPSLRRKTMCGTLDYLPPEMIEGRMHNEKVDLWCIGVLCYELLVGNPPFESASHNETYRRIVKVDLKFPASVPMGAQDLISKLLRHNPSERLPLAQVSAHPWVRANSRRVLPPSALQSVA
Method: as §1, §2

CLK4(h) = target: T3, CLK4(h) (Homo sapiens, UniProt Q9HAZ1); assay: radiometric protein kinase assay, CLK4; assay type: biochemical; details: enzyme inhibition, ATP 10 μM
T3 construct: purchased Eurofins, Dundee, Scotland
T3 sequence (Q9HAZ1 whole entry): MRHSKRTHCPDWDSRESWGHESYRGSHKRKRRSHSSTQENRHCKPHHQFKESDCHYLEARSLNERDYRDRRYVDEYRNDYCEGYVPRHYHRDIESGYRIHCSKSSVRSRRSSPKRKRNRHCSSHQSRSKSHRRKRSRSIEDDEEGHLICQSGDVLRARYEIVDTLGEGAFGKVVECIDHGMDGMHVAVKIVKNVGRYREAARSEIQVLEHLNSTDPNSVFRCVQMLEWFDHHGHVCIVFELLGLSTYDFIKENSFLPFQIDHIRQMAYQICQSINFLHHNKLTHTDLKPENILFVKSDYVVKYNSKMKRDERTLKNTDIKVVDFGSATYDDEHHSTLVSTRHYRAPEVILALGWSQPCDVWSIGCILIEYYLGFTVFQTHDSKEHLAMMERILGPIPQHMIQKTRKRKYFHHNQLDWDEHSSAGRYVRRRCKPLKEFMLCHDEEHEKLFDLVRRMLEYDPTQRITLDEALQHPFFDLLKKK
Method: as §1, §2

[1] = system: SK-MEL-2/Luc-MDM2 cells (MDM2-Luc exon-skipping reporter); assay: cell-based MDM2-Luc exon-skipping reporter assay; details: for luciferase response (Luc fold) in the MDM2-Luc reporter assay: compared with less potent CLK inhibitors of the series; for MDM2/Luc: luciferase activation vs DMSO control, average of three experiments
Src(1-530)(h) = target: T4, Src(1-530)(h) (Homo sapiens, UniProt P12931); assay: kinase profile, radiometric assay, Src(1-530); assay type: biochemical
T4 construct: Src(1-530)
T4 sequence (P12931 1-530): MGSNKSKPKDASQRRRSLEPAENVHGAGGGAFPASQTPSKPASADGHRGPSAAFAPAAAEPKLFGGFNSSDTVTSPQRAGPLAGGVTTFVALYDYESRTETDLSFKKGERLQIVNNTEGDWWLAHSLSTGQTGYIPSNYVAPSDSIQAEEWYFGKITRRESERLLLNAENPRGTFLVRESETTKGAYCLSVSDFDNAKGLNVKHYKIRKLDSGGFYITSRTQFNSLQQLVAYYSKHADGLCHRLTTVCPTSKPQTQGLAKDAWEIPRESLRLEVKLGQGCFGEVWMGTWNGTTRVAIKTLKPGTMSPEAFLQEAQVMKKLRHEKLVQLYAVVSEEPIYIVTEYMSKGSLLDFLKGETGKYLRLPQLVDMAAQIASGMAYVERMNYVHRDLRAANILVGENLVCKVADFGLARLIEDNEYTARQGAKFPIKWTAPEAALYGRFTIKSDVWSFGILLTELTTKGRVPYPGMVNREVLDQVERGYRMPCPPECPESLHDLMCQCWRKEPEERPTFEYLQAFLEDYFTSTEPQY
Method: as §1, §2

JAK3(h) = target: T5, JAK3(h) (Homo sapiens, UniProt P52333); assay: kinase profile, radiometric assay, JAK3; assay type: biochemical
T5 construct: purchased Eurofins, Dundee, Scotland
T5 sequence (P52333 1-1124): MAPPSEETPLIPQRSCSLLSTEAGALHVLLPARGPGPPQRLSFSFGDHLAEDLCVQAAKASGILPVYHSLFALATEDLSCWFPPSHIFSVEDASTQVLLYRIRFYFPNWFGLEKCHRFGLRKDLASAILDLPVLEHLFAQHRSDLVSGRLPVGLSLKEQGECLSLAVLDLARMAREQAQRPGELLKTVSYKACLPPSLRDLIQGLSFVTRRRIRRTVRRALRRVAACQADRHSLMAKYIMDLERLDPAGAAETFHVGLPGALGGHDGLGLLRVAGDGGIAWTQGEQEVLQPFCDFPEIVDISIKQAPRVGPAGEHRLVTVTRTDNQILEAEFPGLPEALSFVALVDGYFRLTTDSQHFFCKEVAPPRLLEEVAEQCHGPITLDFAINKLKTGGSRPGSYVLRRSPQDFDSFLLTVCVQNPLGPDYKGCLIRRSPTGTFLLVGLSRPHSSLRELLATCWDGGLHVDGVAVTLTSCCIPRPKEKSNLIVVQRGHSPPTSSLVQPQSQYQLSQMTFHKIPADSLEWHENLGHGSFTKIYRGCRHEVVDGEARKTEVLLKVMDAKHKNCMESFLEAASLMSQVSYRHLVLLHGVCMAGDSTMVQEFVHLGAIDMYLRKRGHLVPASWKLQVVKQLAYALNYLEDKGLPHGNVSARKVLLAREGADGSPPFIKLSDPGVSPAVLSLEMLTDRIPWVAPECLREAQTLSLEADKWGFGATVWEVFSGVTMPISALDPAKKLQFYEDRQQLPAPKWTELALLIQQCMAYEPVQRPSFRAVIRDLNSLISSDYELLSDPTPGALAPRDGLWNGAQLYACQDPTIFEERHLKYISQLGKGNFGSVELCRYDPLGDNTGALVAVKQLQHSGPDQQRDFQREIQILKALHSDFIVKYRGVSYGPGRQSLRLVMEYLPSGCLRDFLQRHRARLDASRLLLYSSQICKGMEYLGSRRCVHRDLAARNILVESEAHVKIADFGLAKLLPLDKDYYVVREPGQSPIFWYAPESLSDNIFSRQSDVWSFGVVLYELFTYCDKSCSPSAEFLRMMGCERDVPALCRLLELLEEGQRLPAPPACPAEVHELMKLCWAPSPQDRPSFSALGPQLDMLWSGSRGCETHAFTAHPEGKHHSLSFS
Method: as §1, §2

JNK1α1(h) = target: T6, JNK1α1(h) (Homo sapiens, UniProt P45983); assay: kinase profile, radiometric assay, JNK1α1; assay type: biochemical
T6 construct: purchased Eurofins, Dundee, Scotland
T6 sequence (P45983 1-384 isoform P45983-2): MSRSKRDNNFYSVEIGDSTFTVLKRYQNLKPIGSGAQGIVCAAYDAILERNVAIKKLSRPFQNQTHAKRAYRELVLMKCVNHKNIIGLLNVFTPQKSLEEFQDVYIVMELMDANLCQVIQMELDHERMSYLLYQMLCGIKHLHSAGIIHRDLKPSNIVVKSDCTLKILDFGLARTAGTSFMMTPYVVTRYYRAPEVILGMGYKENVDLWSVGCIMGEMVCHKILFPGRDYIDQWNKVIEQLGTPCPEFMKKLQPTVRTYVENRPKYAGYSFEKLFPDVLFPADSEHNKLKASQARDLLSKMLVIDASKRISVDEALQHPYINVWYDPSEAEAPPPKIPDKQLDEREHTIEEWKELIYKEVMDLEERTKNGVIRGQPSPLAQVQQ
Method: as §1, §2

CLK2(h) = target: T7, CLK2(h) (Homo sapiens, UniProt P49760); assay: radiometric protein kinase assay, CLK2; assay type: biochemical; details: enzyme inhibition, ATP 10 μM
T7 construct: purchased Eurofins, Dundee, Scotland
T7 sequence (P49760 whole entry): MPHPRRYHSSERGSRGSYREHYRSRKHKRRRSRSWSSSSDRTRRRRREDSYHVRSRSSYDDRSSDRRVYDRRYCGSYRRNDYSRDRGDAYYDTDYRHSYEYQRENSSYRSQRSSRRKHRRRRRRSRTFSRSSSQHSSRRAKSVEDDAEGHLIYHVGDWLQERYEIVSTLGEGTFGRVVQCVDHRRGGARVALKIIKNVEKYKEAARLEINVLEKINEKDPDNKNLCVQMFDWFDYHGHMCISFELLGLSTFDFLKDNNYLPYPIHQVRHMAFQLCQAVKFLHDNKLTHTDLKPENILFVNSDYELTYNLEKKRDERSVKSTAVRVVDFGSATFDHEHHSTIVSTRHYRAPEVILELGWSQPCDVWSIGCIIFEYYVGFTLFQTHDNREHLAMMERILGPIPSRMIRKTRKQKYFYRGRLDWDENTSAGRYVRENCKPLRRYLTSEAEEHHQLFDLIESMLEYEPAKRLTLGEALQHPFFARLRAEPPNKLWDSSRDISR
Method: as §1, §2

B-Raf(h) = target: T8, B-Raf(h) (Homo sapiens, UniProt P15056); assay: kinase profile, radiometric assay, B-Raf; assay type: biochemical
T8 construct: purchased Eurofins, Dundee, Scotland
T8 sequence (P15056 whole entry): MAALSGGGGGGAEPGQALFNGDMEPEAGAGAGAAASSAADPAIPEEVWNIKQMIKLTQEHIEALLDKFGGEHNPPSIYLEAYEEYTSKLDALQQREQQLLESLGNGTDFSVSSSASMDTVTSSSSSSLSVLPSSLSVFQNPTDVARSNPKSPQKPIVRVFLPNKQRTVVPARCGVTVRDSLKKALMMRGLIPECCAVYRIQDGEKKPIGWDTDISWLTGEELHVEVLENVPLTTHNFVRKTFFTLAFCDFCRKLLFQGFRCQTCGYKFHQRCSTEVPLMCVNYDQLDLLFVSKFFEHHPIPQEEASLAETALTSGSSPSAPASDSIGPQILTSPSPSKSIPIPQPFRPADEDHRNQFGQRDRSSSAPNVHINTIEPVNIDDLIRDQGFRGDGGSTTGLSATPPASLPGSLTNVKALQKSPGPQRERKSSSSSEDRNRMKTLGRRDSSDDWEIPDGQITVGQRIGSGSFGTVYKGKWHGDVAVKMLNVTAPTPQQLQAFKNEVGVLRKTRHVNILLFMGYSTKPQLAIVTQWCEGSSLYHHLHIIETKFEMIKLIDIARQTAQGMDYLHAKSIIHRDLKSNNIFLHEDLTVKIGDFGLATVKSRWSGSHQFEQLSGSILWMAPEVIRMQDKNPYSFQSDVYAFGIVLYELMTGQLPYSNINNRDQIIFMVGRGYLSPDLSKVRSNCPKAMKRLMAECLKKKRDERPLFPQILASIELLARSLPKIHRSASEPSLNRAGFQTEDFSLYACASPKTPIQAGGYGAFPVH
Method: as §1, §2

[2] = system: PI3 Kinase (p110β/p85α)(h); assay: kinase profile, non-radiometric HTRF assay, PI3 kinases; assay type: biochemical, human; details: at 1 μM
ALK(h) = target: T9, ALK(h) (Homo sapiens, UniProt Q9UM73); assay: kinase profile, radiometric assay, ALK; assay type: biochemical
T9 construct: purchased Eurofins, Dundee, Scotland
T9 sequence (Q9UM73 19-1620): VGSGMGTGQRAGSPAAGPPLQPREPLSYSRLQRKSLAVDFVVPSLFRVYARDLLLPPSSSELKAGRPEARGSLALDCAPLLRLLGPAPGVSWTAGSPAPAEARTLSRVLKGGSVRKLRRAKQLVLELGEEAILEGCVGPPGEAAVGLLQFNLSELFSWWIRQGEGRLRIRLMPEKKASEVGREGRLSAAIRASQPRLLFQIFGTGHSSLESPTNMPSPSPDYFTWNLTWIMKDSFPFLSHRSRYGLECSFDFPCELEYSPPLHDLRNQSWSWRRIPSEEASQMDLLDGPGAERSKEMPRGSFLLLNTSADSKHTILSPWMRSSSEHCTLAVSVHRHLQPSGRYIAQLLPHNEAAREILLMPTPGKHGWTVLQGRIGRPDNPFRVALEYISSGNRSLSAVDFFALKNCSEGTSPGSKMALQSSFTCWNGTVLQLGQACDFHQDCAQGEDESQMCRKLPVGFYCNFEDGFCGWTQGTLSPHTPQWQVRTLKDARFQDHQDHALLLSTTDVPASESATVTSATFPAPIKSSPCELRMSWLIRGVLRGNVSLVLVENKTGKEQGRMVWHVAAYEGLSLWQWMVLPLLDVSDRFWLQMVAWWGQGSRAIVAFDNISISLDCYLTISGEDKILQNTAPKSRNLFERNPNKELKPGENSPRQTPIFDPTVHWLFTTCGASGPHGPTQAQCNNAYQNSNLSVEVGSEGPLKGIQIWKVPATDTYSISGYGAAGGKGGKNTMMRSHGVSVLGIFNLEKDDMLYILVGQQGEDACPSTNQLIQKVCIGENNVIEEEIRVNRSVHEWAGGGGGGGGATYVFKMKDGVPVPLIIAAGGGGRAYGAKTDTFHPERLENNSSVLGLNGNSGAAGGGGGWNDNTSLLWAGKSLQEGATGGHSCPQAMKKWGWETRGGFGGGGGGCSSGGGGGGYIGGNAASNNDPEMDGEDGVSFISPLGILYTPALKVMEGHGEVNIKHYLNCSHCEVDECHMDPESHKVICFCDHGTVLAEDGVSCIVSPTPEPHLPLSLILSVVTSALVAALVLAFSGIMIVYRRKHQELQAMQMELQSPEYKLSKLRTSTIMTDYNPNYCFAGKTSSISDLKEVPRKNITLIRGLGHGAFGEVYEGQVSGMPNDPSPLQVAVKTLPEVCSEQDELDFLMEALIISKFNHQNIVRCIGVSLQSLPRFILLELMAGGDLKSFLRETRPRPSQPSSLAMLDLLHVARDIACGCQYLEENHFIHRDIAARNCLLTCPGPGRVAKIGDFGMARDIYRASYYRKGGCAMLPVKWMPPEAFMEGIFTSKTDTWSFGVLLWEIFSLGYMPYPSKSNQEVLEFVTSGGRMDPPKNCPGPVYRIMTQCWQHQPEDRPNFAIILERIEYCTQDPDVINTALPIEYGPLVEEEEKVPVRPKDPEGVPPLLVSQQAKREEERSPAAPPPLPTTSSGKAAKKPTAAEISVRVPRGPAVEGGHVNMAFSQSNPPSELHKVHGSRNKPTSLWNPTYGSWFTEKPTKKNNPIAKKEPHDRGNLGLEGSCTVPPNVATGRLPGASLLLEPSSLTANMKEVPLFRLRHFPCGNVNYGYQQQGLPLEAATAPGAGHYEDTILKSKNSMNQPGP
Method: as §1, §2

[3] = first of three lines printed with this name (r24)
[4] = second of three lines with this name
[5] = third of three lines printed with this name (r26)

Structure (SMILES)	inhibition at 1 µM (Aurora-A(h)) [%]	inhibition at 1 µM (Aurora-B(h)) [%]	IC50 (CLK4(h)) [nM]	luciferase response (Luc fold) in the MDM2-Luc reporter assay [1]	MDM2/Luc [1]	inhibition at 1 µM (Src(1-530)(h)) [%]	inhibition at 1 µM (JAK3(h)) [%]	inhibition at 1 µM (JNK1α1(h)) [%]	IC50 (CLK2(h)) [nM]	inhibition at 1 µM (B-Raf(h)) [%]	% Inhibition PI3 Kinase (p110β/p85α)(h) [2, 3] [%]	% Inhibition PI3 Kinase (p110β/p85α)(h) [2, 4] [%]	% Inhibition PI3 Kinase (p110β/p85α)(h) [2, 5] [%]	inhibition at 1 µM (ALK(h)) [%]	MDM2-Luc activity ([1]; result in words, no concentration stated)
CC(C)n1cnc2c(Nc3cccc(Cl)c3)nc(N[C@@H]3CCCC[C@@H]3N)nc21 [Compound 9, N^2-((1R,2S)-2-Aminocyclohexyl)-N^6-(3-Chlorophenyl)-9-Isopropyl-9H-Purine-2,6-Diamine]	-5	-16	50	stronger luciferase response	Active	69	4	-1	11	21	4	3	5	-2	–
CC(C)n1cnc2c(Nc3cc(N)cc(Cl)c3)nc(NC3CCCCC3N)nc21 (racemic) [Compound 14, Racemic N^6-Cis-(3-Amino-5-Chlorophenyl)-N^2-(2-Aminocyclohexyl)-9-Isopropyl-9H-Purine-2,6-Diamine]	13	-16	54	stronger luciferase response	Active	78	0	-6	16	5	4	0	1	10	strong MDM2-Luc activity
CC(C)n1cnc2c(Nc3cccc(Cl)c3)nc(N[C@H]3CCCC[C@@H]3N)nc21 [Compound 8, N^2-((1S,2S)-2-Aminocyclohexyl)-V-(3-Chlorophenyl)-9-Isopropyl-9H-Purine-2,6-Diamine]	4	-15	86	–	Active	22	0	3	16	10	5	2	2	7	–
